According to paper doi:10.1101/2020.08.18.255380v4 (biorxiv, 2021):

How the values were obtained:
DalS [1] = molecular target: DalS (Salmonella enterica, UniProt Q8ZPA3); experiment: fluorescence; assay type: binding
DalS [2] = molecular target: DalS (Salmonella enterica, UniProt Q8ZPA3, A147S/A76D/D216E/F117L/T197Y/Y148Q); experiment: biochemical
DalS [3] = molecular target: DalS (Salmonella enterica, UniProt Q8ZPA3, A147S); experiment: biochemical
DalS [4] = molecular target: DalS (Salmonella enterica, UniProt Q8ZPA3, A147S/F117L/Y148Q); experiment: biochemical
DalS [5] = molecular target: DalS (Salmonella enterica, UniProt Q8ZPA3, Y148Q); experiment: biochemical
DalS [6] = molecular target: DalS (Salmonella enterica, UniProt Q8ZPA3, A147S/A76D/D216E/F117L/S60R/Y148Q); experiment: biochemical
DalS [7] = molecular target: DalS (Salmonella enterica, UniProt Q8ZPA3, F117L); experiment: biochemical

Compound | Kd (DalS [1]) [µM] | Kd (DalS [2]) [µM] | Kd (DalS [3]) [µM] | Kd (DalS [4]) [µM] | Kd (DalS [5]) [µM] | Kd (DalS [6]) [µM] | Kd (DalS [7]) [µM]
C[C@@H](N)C(=O)O [D-alanine] | 5.4 ± 0.4 | 14 ± 1 | 0.62 ± 0.03 | – | – | – | –
N[C@H](CO)C(=O)O [D-serine] | 12 ± 1 | 4.8 ± 0.2 | 1.8 ± 0.4 | 43 ± 1 | 101 ± 3 | 70 ± 17 | 3.7 ± 0.2
NCC(=O)O [glycine] | 5 ± 1 | 40 ± 2 | – | – | – | – | –
